# Assays:
# Type in all cases: functional
# Enterococcus faecalis = assay: Antibacterial activity against Enterococcus faecalis
# Bacillus subtilis = assay: Antibacterial activity against Bacillus subtilis
# Enterococcus faecium = assay: Antibacterial activity against Enterococcus faecium
# [1] = tested on: Staphylococcus haemolyticus; assay: Antibacterial activity against Staphylococcus haemolyticus
# Staphylococcus aureus = assay: Antibacterial activity against Staphylococcus aureus
# [2] = tested on: Staphylococcus epidermidis; assay: Antibacterial activity against Staphylococcus epidermidis
# Streptococcus pyogenes = assay: Antibacterial activity against Streptococcus pyogenes
MIC (Enterococcus faecalis) [µg/mL],MIC (Bacillus subtilis) [µg/mL],MIC (Enterococcus faecium) [µg/mL],MIC (Staphylococcus aureus) [µg/mL],MIC [2] [µg/mL],MIC (Streptococcus pyogenes) [µg/mL],Structure (SMILES),MIC [1] [µg/mL]
4,4,4,4,4,4,CN[C@@H](CC(C)C)C(=O)NCCc1c(Br)n(C)c2cc(Br)c(Br)cc12 [ALTEMATAMIDE A],4
4,4,4,4,4,4,CN[C@@H](CC(C)C)C(=O)NCCc1c(Br)[nH]c2cc(Br)c(Br)cc12 [ALTEMATAMIDE B],4
4,4,4,4,4,4,CN[C@@H](CC(C)C)C(=O)NCCc1c(Br)[nH]c2ccc(Br)cc12 [ALTEMATAMIDE C],4

# From ChEMBL document CHEMBL1146430, “Alternatamides A-D: new bromotryptamine peptide antibiotics from the Atlantic marine bryozoan Amathia alternata” (1997)
